From US8058243B2, “Method for treating a brain cancer with ifenprodil” (HSC Research and Development Limited Partnership, priority 2006, dated 2011)
Where a name gives a salt, the structure may show the parent alone. Read-outs that look alike come from different tables or passages of the source.

Tested on: murine neural precursor cells (neurosphere cultures)
Assay: HTS of LOPAC library against secondary neurosphere cultures, MTT proliferation assay at 3 μM, day 7 (z score, P value)
Format: cell-based, mouse
[1] = LOPAC primary screen, neurosphere MTT proliferation, 3 μM, day 7
[2] = yes/no: significantly inhibited neurosphere proliferation (P<0.01) in the primary screen
[3] = LOPAC library screen, 3 μM, MTT, neurosphere cultures
[4] = LOPAC screen, neurosphere MTT proliferation, 3 μM, day 7
[5] = yes/no: significantly inhibited neurosphere proliferation (P<0.01) in primary screen
[6] = LOPAC library screen, 3 μM, MTT, secondary neurosphere cultures, day 7
[7] = yes/no: significantly inhibited neurosphere proliferation in primary screen
[8] = yes = significantly inhibited neurosphere proliferation (P<0.01) in the primary screen
[9] = LOPAC library screen at 3 μM, secondary neurosphere cultures, MTT
[10] = yes/no: significantly inhibited neurosphere proliferation in the primary screen
[11] = LOPAC library screen at 3 μM, MTT, secondary neurosphere cultures, screened in singlets
[12] = primary LOPAC screen, 3 μM, MTT, neurosphere proliferation

Compound: CCn1cnc2c(Nc3cccc(Cl)c3)nc(N[C@@H]3CCCC[C@@H]3N)nc21.Cl [CGP-74514A hydrochloride]
- Z Score: −9.117
- Z score [1]: −9.117
- Activity [2]: yes

Compound: NCCS(=O)O [Hypotaurine]
- Activity: no
- Z Score: 0.2752
- Z score: 0.275

Compound: CN(C)CCC(c1ccc(Cl)cc1)c1ccccn1.O=C(O)/C=C\C(=O)O (stereo not shown) [(B1)-Chlorpheniramine maleate]
- Z Score: −2.116

Compound: COC(=O)[C@@H](N)Cc1ccc(O)c(O)c1.Cl [L-3,4-Dihydroxyphenylalanine methyl ester hydrochloride]
- Z Score [3]: 0.2769
- Z score [4]: 0.277
- Activity [5]: no

Compound: C=C/C(C)=C/[C@@]1(C)SC(=O)C(C)=C1O [Thiolactomycin]
- Z Score [6]: −1.3
- Z score [1]: −1.300
- Activity [7]: no

Compound: CCCN(CCC)[C@H]1CCc2c(F)ccc(O)c2C1.Cl [S(−)-UH-301 hydrochloride]
- Z Score: −2.706
- Z score [1]: −2.706
- Activity [2]: yes

Compound: CC(=O)O[C@H]1C(=O)[C@@]2(C)[C@H]([C@H](OC(=O)c3ccccc3)[C@]3(O)C[C@H](OC(=O)[C@H](O)[C@@H](NC(=O)c4ccccc4)c4ccccc4)C(C)=C1C3(C)C)[C@]1(OC(C)=O)CO[C@@H]1C[C@@H]2O [Taxol]
- Z Score [6]: −11.27
- Z score [1]: −11.274
- Activity [8]: yes

Compound: CN(C(=O)Cc1ccc(Cl)c(Cl)c1)C(CN1CCCC1)c1cccc(OCC(=O)O)c1.Cl (stereo not shown) [ICI 204,448 hydrochloride]
- Z Score: −0.3636
- Z score [1]: −0.364
- Activity [5]: no

Compound: C[N+](C)(C)CC(=O)O [Betaine hydrochloride]
- Z Score [6]: −2.668
- Z score [1]: −2.668
- Activity [2]: yes

Compound: Nc1nc(Cl)nc2c1ncn2[C@@H]1O[C@H](COP(=O)([O-])OP(=O)([O-])OP(=O)([O-])[O-])[C@@H](O)[C@H]1O.[Na+].[Na+].[Na+].[Na+] [2-Chloroadenosine triphosphate tetrasodium]
- Z Score (168 h, 3 µM): 1.149
- Z score (168 h, 3 µM): 1.149
- Activity [5]: no

Compound: CCN(CC)CC(=O)Nc1c(C)cccc1C [Lidocaine hydrochloride]
- Z Score [9]: −0.1111
- Z score [1]: −0.111
- Activity [5]: no

Compound: CN(C)CCCO[C@@H]1[C@H]2OC(C)(C)O[C@H]2O[C@@H]1[C@H](O)CO [Amiprilose hydrochloride]
- Z Score (168 h, 3 µM): −0.7783
- Z score (168 h, 3 µM): −0.778
- Activity [10]: no

Compound: CCOC(=O)[N-]c1cn(N2CCOCC2)n[o+]1 [Molsidomine]
- Z Score [11]: 1.567
- Z score [1]: 1.567
- Activity [8]: no

Compound: CC(C)NCC(O)c1ccc(NS(C)(=O)=O)cc1.Cl (racemic) [(±)-Sotalol hydrochloride]
- Z score [1]: −0.813
- Activity [7]: no

Compound: COC1=C(OC)C(=O)c2ccccc2C1=O [2,3-Dimethoxy-1,4-naphthoquinone]
- Z Score: −10.4
- Z score [1]: −10.398
- Activity [2]: yes

Compound: NC(=O)CN1CCCC1=O [Piracetam]
- Z Score [9]: −0.3758
- Z score [1]: −0.376
- Activity [8]: no

Compound: NC1(C(=O)O)CCC(C(=O)O)C1 (stereo not drawn) [trans-(B1)-ACPD]
- Z Score: 0.3149

Compound: N[C@H](C(=O)O)c1cc(O)no1 [(B1)-Ibotenic acid]
- Z Score: −1.65

Compound: Cl.Nc1ccn([C@@H]2O[C@H](CO)[C@@H](O)[C@@H]2O)c(=O)n1
- Z Score [6]: −11.27
- Z score [1]: −11.274
- Activity [2]: yes

Compound: CCOC(=O)C1=C(C)NC(=S)NC1c1cccc(O)c1 (stereo not shown) [Monastrol]
- Z Score (168 h, 3 µM): −1.162
- Z score (168 h, 3 µM): −1.162

Compound: CCCCCCCCCCCCCCCCOCC(COCC(F)(F)F)OP(=O)(O)OC (stereo not shown) [MJ33]
- Z Score: 1.364
- Z score [1]: 1.364
- Activity [8]: no

Compound: CCCNC(C)C(=O)Nc1ccccc1C (stereo not shown) [Prilocaine hydrochloride]
- Z Score [11]: 1.509
- Z score [1]: 1.509
- Activity [7]: no

Compound: CC(=O)O.NC(=NCCC[C@H](N)C(=O)O)NO [NG-Hydroxy-L-arginine acetate]
- Z Score [6]: −10.96
- Z score [1]: −10.958
- Activity [2]: yes

Compound: Br.CCCN(CCC)[C@@H]1CCc2cccc(O)c2C1 [R-(+)-8-Hydroxy-DPAT hydrobromide]
- Z Score [9]: −0.6916
- Z score [1]: −0.692
- Activity [2]: no

Compound: N#CC(C#N)=Cc1ccc(O)c(O)c1 [Tyrphostin 23]
- Z Score: −0.8396
- Z score [1]: −0.840
- Activity [7]: no

Compound: CN1CCN(CCCN2c3ccccc3Sc3ccc(C(F)(F)F)cc32)CC1 [Trifluoperazine dihydrochloride]
- Z Score (168 h, 3 µM): −9.305
- Z score (168 h, 3 µM): −9.305
- Activity [2]: yes

Compound: CCCN1CCOC2c3cc(O)ccc3OCC21.Cl (racemic) [(±)-PD 128,907 hydrochloride]
- Z score [1]: 1.164
- Activity [7]: no

Compound: CN1CCN(C2=Nc3cc(Cl)ccc3Nc3ccccc32)CC1 [Clozapine]
- Z Score (168 h, 3 µM): 0.5473
- Z score (168 h, 3 µM): 0.547

Compound: O=c1oc(Cl)c(Cl)c2ccccc12 [3,4-Dichloroisocoumarin]
- Z Score (168 h, 3 µM): −1.12
- Z score (168 h, 3 µM): −1.120
- Activity [5]: no

Compound: O=Nc1ccc2oc(=O)ccc2c1 [6-Nitroso-1,2-beazopyrone]
- Z Score: 0.01132

Compound: CC12CC3CC(C)(C1)CC(N)(C3)C2 [Memantine hydrochloride]
- Z Score [9]: −0.141
- Z score [1]: −0.141
- Activity [8]: no

Compound: CCN(CC)CCOC(=O)C1(C2CCCCC2)CCCCC1 [Dicyclomine hydrochloride]
- Z Score (168 h, 3 µM): 1.414
- Z score (168 h, 3 µM): 1.414

Compound: Cl.c1ccc(CN(CC2=NCCN2)c2ccccc2)cc1 [Antozoline hydrochloride]
- Z Score: 0.4854
- Z score [12]: 0.485
- Activity [10]: no

Compound: O=C(O)CN(CCOCCOCCN(CC(=O)O)CC(=O)O)CC(=O)O
- Activity: no
- Z Score: 1.507
- Z score: 1.507

Compound: CC(C)[N+]1(C)[C@@H]2CC[C@H]1CC(OC(=O)C(CO)c1ccccc1)C2.[Br-] (stereo partly shown) [Ipratropium bromide]
- Z Score: −0.308
- Z score [1]: −0.308
- Activity [5]: no

Compound: CC(Cc1ccc(O)c(O)c1)C(C)Cc1ccc(O)c(O)c1 (stereo not shown)
- Z Score [11]: 2.63
- Z score [1]: 2.630
- Activity [8]: no

Compound: CN(C)CC/C=C1/c2ccccc2Sc2ccc(Cl)cc21 [Chlorprothixene hydrochloride]
- Z Score (168 h, 3 µM): −5.008
- Z score (168 h, 3 µM): −5.008
- Activity [2]: yes

Compound: (−)-Eseroline fumarate
- Z Score: 0.6339
- Z score [1]: 0.634
- Activity [5]: no

Compound: O=c1[nH]c(=O)n([C@H]2C[C@H](O)[C@@H](CO)O2)cc1Br [5-Bromo-2′-deoxyuridine]
- Z score [4]: 2.580
- Activity [5]: no

Compound: COc1ccc([C@@H]2Sc3ccccc3N(CCN(C)C)C(=O)[C@@H]2OC(C)=O)cc1 [Diltiazem hydrochloride]
- Activity: no
- Z Score [3]: 0.5395
- Z score [4]: 0.540

Compound: NNC(N)=O [Semicarbazide hydrochloride]
- Z Score: −1.405
- Z score [1]: −1.405
- Activity [7]: no

Compound: CCCCCCCCCCCCCC(=O)O[C@@H]1[C@@H](C)[C@@]2(O)[C@@H](C=C(CO)C[C@]3(O)C(=O)C(C)=C[C@@H]23)[C@@H]2C(C)(C)[C@]12OC(C)=O [Phorbol 12-myristate 13-acetate]
- Z Score: −0.265
- Z score [1]: −0.265
- Activity [7]: no

Compound: N[C@@H](Cc1ccc(O)c(O)c1)C(=O)O [L-3,4-Dihydroxyphenylalanine]
- Z Score (168 h, 3 µM): 2.44
- Z score (168 h, 3 µM): 2.440
- Activity [5]: no

Compound: CCCn1cnc2c1c(=O)n(CCCCC(C)=O)c(=O)n2C [Propentofylline]
- Z Score [3]: 0.1563
- Z score [1]: 0.156
- Activity [7]: no

Compound: NC(CO)(CO)CO.O=C(c1ccccc1)c1ccc2n1CCC2C(=O)O (stereo not shown) [Ketorolac tris salt]
- Z Score [9]: −0.7256
- Z score [1]: −0.726
- Activity [5]: no

Compound: NC(CCCCCP(=O)(O)O)C(=O)O (stereo not shown) [(B1)-2-Amino-7-phosphonoheptanoic acid]
- Z Score: −1.02

Compound: C[N+]1(C)[C@@H]2C[C@@H](OC(=O)[C@H](CO)c3ccccc3)C[C@H]1[C@@H]1O[C@@H]12.[Br-] [(−)-Scopolamine methyl bromide]
- Z Score: −0.8468
- Z score [1]: −0.847
- Activity [7]: no

Compound: CN(Cc1cnc2nc(N)nc(N)c2n1)c1ccc(C(=O)N[C@@H](CCC(=O)O)C(=O)O)cc1 [Methotrexate]
- Z Score [6]: −10.2
- Z score [1]: −10.203
- Activity [2]: yes

Compound: CC(C)(C)c1cc(/C=C(\C#N)C(N)=S)cc(C(C)(C)C)c1O [Tyrphostin AG 879]
- Z Score [6]: −1.607
- Z score [12]: −1.607
- Activity [10]: no

Compound: CC(=O)Oc1cc(C(C)C)c(OCCN(C)C)cc1C [Moxisylyte hydrochloride]
- Z Score [9]: −1.018
- Z score [1]: −1.018
- Activity [8]: no

Compound: S=C=Nc1ccc2oc(C3=NCCN3)cc2c1 [BU99006]
- Z Score: 1.182
- Z score [1]: 1.182
- Activity [5]: no

Compound: NC(C(=O)O)C(O)C(=O)O (racemic) [DL-threo-beta-hydroxyaspartic acid]
- Z Score: −0.5215
- Z score [1]: −0.522
- Activity [5]: no

Compound: Br.NC1CCc2cc(O)c(O)cc2C1 (stereo not shown) [6,7-ADTN hydrobromide]
- Z Score [3]: 0.357
- Z score [4]: 0.357
- Activity [5]: no

Compound: O=Nc1ccc2oc(=O)ccc2c1 [6-Nitroso-1,2-benzopyrone]
- Z score [1]: 0.011
- Activity [8]: no
